From patent US20060030556A1, “Neurokinin-1 receptor antagonists for the treatment of conditions responsive to testosterone elevation, including testosterone deficiency” (SOLVAY PHARMACEUTICALS B.V., priority 2004, published 2006) come the findings set out here.

A short description of test [1]: Serum testosterone in chronic psychosocial stress with concomitant Compound 1 treatment (enzyme-immunoassay). The test is classed as in vivo, tree shrews (Tupaia belangen). The procedure: (§1) The experiments were carried out using tree shrews (Tupaia belangen). Experimentally naive adult male tree shrews were obtained from the breeding colony at the German Primate Center (Göttingen, Germany). Animals were housed individually in air-conditioned facilities on a 12 hr/12 hr light/dark cycle with artificial illumination (lights on from 8:00 A.M. to 8:00 P.M.) and with free access to food and water (Fuchs E. “Tree shrews”, In: Poole T, (ed) UFAW handbook on the care and management of laboratory animals Oxford: Blackwell, 235-245, 1999). All treatments were performed during the day (activity period, lights on). Animal experiments were conducted in accordance with the European Communities Council Directive of Nov. 24, 1986 […] and were approved by the Government of Lower Saxony, Germany.
The experimental design was as follows: Animals were divided into three experimental groups: ‘Control’, ‘Stress’ and ‘Stress+Compound 1’, each consisting of six tree shrews. The experiment consisted of three different phases and lasted for six weeks (42 days). The first experimental phase went on for 7 days, during which all animals remained undisturbed and body weight was recorded daily. The second phase of the experiment was a 7-day period, during which the animals of the Stress' and the ‘Stress+Compound 1’ group were submitted to daily psychosocial conflict. For the induction of psychosocial conflict one naive male was introduced into the cage of a socially experienced male. After establishment of a clear dominant/subordinate relationship, the two animals were separated by a wire mesh barrier. […]
For determination of testosterone, 100 μl serum was two times extracted with 1 ml of diethylether by vortexing for 10 min. […] 50 μl aliquots of reconstituted extracts were then measured for concentrations of testosterone by enzyme-immunoassay as described by Kraus et al. (Physiol. Behav. 66: 855-861, 1999). […]
Serum testosterone levels were measured from blood samples collected before perfusing the animals. […]

Test [2] deals with NK1 receptors in the tree shrew brain. The test is described as follows: Nicotine-induced emesis pilot study to establish the dose that blocks NK1 receptors in tree shrew brain. The test is classed as in vivo, tree shrews (Tupaia belangen). The conditions noted are these: 30 min before s.c. (-)-nicotine 4 mg/kg, episodes counted over following 30 min, n=4 crossover. The method, then: as §1
Animals received the NK1 receptor antagonist Compound 1 orally. A pilot study to establish the dose of Compound 1 that blocks NK1 receptors in the tree shrew brain was conducted. The methodology used is based on the ability of NK1 receptor antagonists to block nicotine-induced vomiting in musk shrews (Tattersall et al., Neuropharmacology, 34, 1697-1699, 1995). Adult tree shrews (n=4) received either vehicle or Compound 1 in different dosage orally followed 30 minutes later by subcutaneous administration of (−)-nicotine (4 mg/kg; Sigma), and the number of emetic episodes occurring during the following 30 min was recorded. Each animal received each treatment in a crossover design, with 10 days washout period between studies. Emetic episodes were abolished by treatment with 20 mg/kg per day Compound 1, whereas lower doses, i.e. 5 or 10 mg/kg per day and vehicle were ineffective.

Setting [3] is: 20 mg/kg/day oral for 28 days, p<0.05.

For the compound `O=C(c1cccc(C(F)(F)F)c1)N1C[C@H]2CC[C@H](N3CCOCC3)CN2C[C@H]1Cc1c[nH]c2ccccc12` [Compound 1], the “serum testosterone concentrations compared to 'Control' animals” value in test [1] (setting [3]) was “two fold increase”. The “testosterone levels compared to the 'Stress' group” value in test [1] (setting [3]) was “six times higher”. Further, the Serum testosterone concentration in test [1] (Stress + Compound 1 group, 20 mg/kg/day oral for 28 days during psychosocial stress, n = 6, p<0.05 versus Control and versus Stress) is listed as 6.45 ± 2.00 *# (n = 6) ng/ml. Moreover, the “emetic episodes after (-)-nicotine” value in test [2] (5 mg/kg per day oral) was “ineffective”; in test [2] (10 mg/kg per day oral), “ineffective”; in test [2] (20 mg/kg per day oral) it was “abolished”.
